Laboratory results published in patent publication US20240228481A1, “NOVEL SULFONAMIDE SERIES OF QR2 INHIBITORS TO TACKLE OXIDATIVE STRESS AND COGNITIVE DECLINE” (CARMEL HAIFA UNIVERSITY ECONOMIC CORPORATION LTD., priority 2021, published 2024).

Experiments:
QR1 (NQO1) [1] = molecular target: T1, QR1 (NQO1) (Homo sapiens, UniProt P15559); assay: Selectivity assay with QR1 in place of QR2, fluorescence readout; type: biochemical
T1 construct: purchased Sigma-Aldrich
Method: (§1) The enzymatic activity of QR2 (10 nM) was measured using menadione (both Sigma-Aldrich) as substrate and dihydrobenzylnicotamide (BNAH; Tocris) as co-substrate (Boutin et al., 2005). The reaction was performed in 50 mM Tris HCl, 150 mM NaCl 0.01% Tween-20 pH=8.5 (Sigma-Aldrich) at room temperature. Briefly, 3 μL of menadione alone (200 μM) or a mixture of menadione and QR2 (200 μM of menadione and 10 nM of QR2) were dispensed in 1536-well black Nunc plates (Thermo-Fisher) using a Multidrop™ Combi Reagent Dispenser (Thermo-Fisher) and pre-incubated with compounds for 10 min. BNAH (200 μM) was then added (3 μL) to the reaction using a BioNex Solutions BNX 1536 plate washer and the plates were incubated for another 10 min. […] The initial HTS was done with approximately 200,000 compounds at a single concentration of 5 μM. The chemical libraries used were Selleck Chemicals Bioactives, the Drug-like set from Enamine, HitFinder collection from Maybridge, Spectrum Collection from Microsource, Lopac from Sigma-Aldrich and the diversity sets from ChemDiv and ChemBridge. Initial “hit” compounds were defined as causing >30% reduction of enzyme activity. Compounds suspected to be fluorescent were re-assayed in an absorbance assay at 350 nm using the same reaction but in a higher volume (100 μL), in a transparent plate (Greiner Bio-One). “Hit” compounds resulting from both the fluorescence and absorbance assay were tested in a dose-response, and median inhibition concentration (IC50) values were determined. In parallel, the same dose response was used in a selectivity assay where QR2 enzyme was replaced by QR1 (also known as—NQO1, 10 nM; Sigma-Aldrich).
(§2) In order to establish a varied, flexible and chemically amenable starting point from which to develop such inhibitors, the inventors ran a standardized QR2 assay (see methods) against ˜200,000 compounds, from a varied assortment of chemical libraries. […] Compounds that replicated the initial hit result were then assayed similarly, against NQO1, to evaluate compound specificity (FIG. 1B). From the HTS, a series of compounds containing a sulfonamide central linker, with an amine on one side and a heterocycle on the other, were identified and selected for SAR development (FIG. 1C).

QR1 (NQO1) [2] = molecular target: T1, QR1 (NQO1); assay: Selectivity assay with QR1 in place of QR2, absorbance readout; type: biochemical
Method: as §1, §2

QR2 [3] = molecular target: T2, QR2 (Homo sapiens, UniProt P16083); assay: QR2 enzymatic activity assay (menadione/BNAH), fluorescence readout; type: biochemical; design: purchased Sigma-Aldrich
T2 sequence (P16083 1-231): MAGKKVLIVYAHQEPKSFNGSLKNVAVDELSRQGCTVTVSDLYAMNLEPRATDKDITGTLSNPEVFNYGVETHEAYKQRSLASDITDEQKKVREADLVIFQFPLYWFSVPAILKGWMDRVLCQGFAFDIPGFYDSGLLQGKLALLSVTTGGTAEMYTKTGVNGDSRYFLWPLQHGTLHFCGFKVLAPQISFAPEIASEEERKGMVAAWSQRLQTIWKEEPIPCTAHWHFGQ
Method: (§3) The enzymatic activity of QR2 (10 nM) was measured using menadione (both Sigma-Aldrich) as substrate and dihydrobenzylnicotamide (BNAH; Tocris) as co-substrate (Boutin et al., 2005). The reaction was performed in 50 mM Tris HCl, 150 mM NaCl 0.01% Tween-20 pH=8.5 (Sigma-Aldrich) at room temperature. Briefly, 3 μL of menadione alone (200 μM) or a mixture of menadione and QR2 (200 μM of menadione and 10 nM of QR2) were dispensed in 1536-well black Nunc plates (Thermo-Fisher) using a Multidrop™ Combi Reagent Dispenser (Thermo-Fisher) and pre-incubated with compounds for 10 min. BNAH (200 μM) was then added (3 μL) to the reaction using a BioNex Solutions BNX 1536 plate washer and the plates were incubated for another 10 min. […] The initial HTS was done with approximately 200,000 compounds at a single concentration of 5 μM. The chemical libraries used were Selleck Chemicals Bioactives, the Drug-like set from Enamine, HitFinder collection from Maybridge, Spectrum Collection from Microsource, Lopac from Sigma-Aldrich and the diversity sets from ChemDiv and ChemBridge. Initial “hit” compounds were defined as causing >30% reduction of enzyme activity. […] “Hit” compounds resulting from both the fluorescence and absorbance assay were tested in a dose-response, and median inhibition concentration (IC50) values were determined. In parallel, the same dose response was used in a selectivity assay where QR2 enzyme was replaced by QR1 (also known as—NQO1, 10 nM; Sigma-Aldrich).
(§4) In order to establish a varied, flexible and chemically amenable starting point from which to develop such inhibitors, the inventors ran a standardized QR2 assay (see methods) against ˜200,000 compounds, from a varied assortment of chemical libraries.

in vitro = conditions: human
Method: THLE-2 (CRL-2706™) were grown in the BEGM Bullet Kit (CC-3170) from Lonza. Besides the additives contained in the kit, the medium was further supplemented with 5 ng/mL EGF (Sigma), 70 ng/mL phosphoethanolamine (Sigma) and 10% FBS (Biological Industries). The plates for the THLE-2 needed to be pre-coated with a mixture of 0.01 mg/mL fibronectin, 0.05 mg/mL of PureCol™ EZ Gel Solution (Sigma) and 0.01 mg/mL of BSA dissolved in BEBM medium (Lonza). The coating medium was aspirated before seeding.
THLE-2 cells were exposed to the compounds in a 9-point, 2-fold dilution dose response series with a 100 μM as upper limit, for 72 h. Following the 72 h of exposure to the test compounds, cell viability was determined by measuring the concentration of cellular ATP (CellTiter Glo, Promega). The luminescence signal was measured on a Pherastar FS multi-mode plate reader (BMG Labtech). Each data point was tested in a triplicate.
First, toxicity was assessed in an ATP depletion assay, using THLE-2 cells following a 72 h exposure to a dose response of each of the tested compounds.

QR2 [4] = molecular target: T2, QR2; assay: QR2 enzymatic activity assay (menadione/BNAH), absorbance readout at 350 nm; type: biochemical; design: purchased Sigma-Aldrich
Method: as §3, §4

T1 sequence (P15559 whole entry): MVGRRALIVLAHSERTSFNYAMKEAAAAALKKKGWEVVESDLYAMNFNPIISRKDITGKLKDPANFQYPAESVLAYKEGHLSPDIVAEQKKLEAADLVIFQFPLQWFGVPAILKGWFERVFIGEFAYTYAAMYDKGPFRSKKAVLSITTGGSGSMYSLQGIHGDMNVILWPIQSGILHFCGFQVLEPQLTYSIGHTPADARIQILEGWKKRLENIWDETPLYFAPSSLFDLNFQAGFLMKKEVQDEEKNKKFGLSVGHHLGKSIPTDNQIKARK

Row | Compound | IC50 (QR1 (NQO1) [1]) | IC50 (QR1 (NQO1) [2]) | IC50 (QR2 [3]) | IC50 at 72 h (in vitro) | IC50 (QR2 [4])
1 | Cc1ccn2cc(-c3cccc(S(=O)(=O)N4CCCC4)c3)nc2c1 [PCM-0124535] | > 9.99 µM | > 9.99 µM | 0.59 µM | 88.9 µM | 0.16 µM
2 | Cc1cccn2cc(-c3cccc(S(=O)(=O)N4CCCCCC4)c3)nc12 [PCM-0124812] | 5.83 µM | 7.24 µM | 0.004 µM | 45.4 µM | 0.01 µM
3 | Cc1cc(-c2ccc(C)c(S(=O)(=O)NCCCN3CCCC3=O)c2)on1 [PCM-0184891] | > 9.9 µM | > 9.99 µM | 3.26 µM | 219 µM | 2.37 µM
4 | Cc1cc(-c2ccc(C)c(S(=O)(=O)NCc3cccnc3)c2)on1 [PCM-0184959] | > 9.9 µM | > 9.99 µM | 2.72 µM | 249 µM | 2.16 µM
5 | Cc1nc(-c2ccc(C)c(S(=O)(=O)N3CCC(C)CC3)c2)cs1 [PCM-0197104] | > 9.99 µM | > 9.99 µM | 7.4 µM |  | 4.58 µM
6 | CCc1noc(-c2c(S(=O)(=O)NCc3cccc(OC)c3)c(C)n(C)c2C)n1 [PCM-0200337] | > 9.9 µM | > 9.99 µM | > 9.9 µM |  | 8.09 µM
7 | CS(=O)(=O)N(C1CC1)C1CCOC2(CCN(C(=O)C3(c4ccccc4)CC3)CC2)C1 (centres unmarked) [PCM-0207818] | > 9.9 µM | > 9.99 µM | > 9.9 µM |  | > 9.99 µM
8 | Cc1cc(-c2ccc(C)c(S(=O)(=O)N3CCCCCC3)c2)on1 [PCM-0212385] | > 9.99 µM | > 9.99 µM | 1.92 µM | 23.8 µM | 1.24 µM
9 | Cc1cc(-c2ccc(C)c(S(=O)(=O)N3CCCC3)c2)on1 [PCM-0212386] | > 9.99 µM | > 9.99 µM | 0.42 µM | 65.1 µM | 0.75 µM
10 | Cc1cc(-c2ccc(C)c(S(=O)(=O)N3CCC(C)CC3)c2)on1 [PCM-0212387] | > 9.99 µM | > 9.99 µM | 2.89 µM | 50 µM | 1.83 µM
11 | Cc1cc(-c2ccc(C)c(S(=O)(=O)N3CCN(C(=O)c4ccco4)CC3)c2)on1 [PCM-0212388] | > 9.99 µM | > 9.99 µM | 1.19 µM | 124 µM | 1.25 µM
12 | Cc1cc(-c2ccc(C)c(S(=O)(=O)N(C)C)c2)on1 [PCM-0212389] | > 9.99 µM | > 9.99 µM | 2.31 µM | 215 µM | 1.71 µM
13 | Cc1cccn2cc(-c3cccc(S(=O)(=O)Nc4ccc(Cl)cc4)c3)nc12 [PCM-0213788] | > 9.99 µM | > 9.99 µM | 3.04 µM |  | 0.05 µM
14 | Cc1ccn2cc(-c3ccc(C)c(S(=O)(=O)N4CCN(C(=O)c5ccco5)CC4)c3)nc2c1 [PCM-0213790] | > 9.99 µM | 7.15 µM | 0.27 µM |  | 0.11 µM
15 | Cc1cc(-c2ccc(C)c(S(=O)(=O)N3CCN(C(=O)c4ccco4)CC3)c2)n[nH]1 [PCM-0213791] | > 9.99 µM | > 9.99 µM | 0.26 µM |  | 0.08 µM
16 | Cc1cccn2cc(-c3cccc(S(=O)(=O)N4CCN(C(=O)c5ccco5)CC4)c3)nc12 [PCM-0213792] | 3.33 µM | 4.22 µM | 0.01 µM | 64.1 µM | 0.01 µM
17 | Cc1nc(-c2ccc(C)c(S(=O)(=O)NCCCN3CCCC3=O)c2)cs1 [PCM-0213793] | > 9.99 µM | > 9.99 µM | 5.45 µM |  | 2.91 µM
18 | Cc1cccn2cc(-c3cccc(S(=O)(=O)NCCCN4CCCC4=O)c3)nc12 [PCM-0213794] | > 9.99 µM | > 9.99 µM | 0.25 µM |  | 0.11 µM

Row | Compound | IC50 (QR1 (NQO1) [1]) | IC50 (QR1 (NQO1) [2]) | IC50 (QR2 [3]) | IC50 at 72 h (in vitro) | IC50 (QR2 [4])
19 | Cc1cc(-c2ccc(C)c(S(=O)(=O)N3CCCCCC3)c2)[nH]n1 [PCM-0213795] | > 9.99 µM | > 9.99 µM | 0.64 µM |  | 0.28 µM
20 | Cc1nc(-c2ccc(C)c(S(=O)(=O)N3CCCCCC3)c2)cs1 [PCM-0213796] | > 9.99 µM | > 9.99 µM | > 9.99 µM |  | 2.44 µM
21 | Cc1ccc(-c2nnc(-c3ccccc3)o2)cc1S(=O)(=O)N1CCCCCC1 [PCM-0213797] | > 9.99 µM | > 9.99 µM | 3.38 µM |  | 1.06 µM
22 | Cc1ccn2cc(-c3cccc(S(=O)(=O)N4CCCCCC4)c3)nc2c1 [PCM-0213798] | > 9.99 µM | > 9.99 µM | 1.27 µM |  | 0.41 µM
23 | Cc1cc(-c2ccc(C)c(S(=O)(=O)N3CCC(C)CC3)c2)n[nH]1 [PCM-0213799] | > 9.99 µM | > 9.99 µM | 0.9 µM |  | 0.27 µM
24 | Cc1cc(-c2ccc(C)c(S(=O)(=O)N(C)C)c2)n[nH]1 [PCM-0213802] | > 9.99 µM | > 9.99 µM | 0.39 µM |  | 0.16 µM
25 | Cc1nc(-c2ccc(C)c(S(=O)(=O)N(C)C)c2)cs1 [PCM-0213803] | > 9.99 µM | > 9.99 µM | 2.8 µM |  | 0.1 µM
26 | Cc1ccc(-c2nnc(-c3ccccc3)o2)cc1S(=O)(=O)N1CCCC1 [PCM-0213805] | > 9.99 µM | > 9.99 µM | 1.48 µM |  | 0.25 µM
27 | Cc1cc(-c2ccc(C)c(S(=O)(=O)N3CCCC3)c2)n[nH]1 [PCM-0213806] | > 9.99 µM | > 9.99 µM | 0.17 µM |  | 0.05 µM
28 | Cc1nc(-c2ccc(C)c(S(=O)(=O)N3CCCC3)c2)cs1 [PCM-0213807] | > 9.99 µM | > 9.99 µM | 1.55 µM |  | 0.37 µM
29 | Cc1ccn2cc(-c3ccc(C)c(S(=O)(=O)N4CCCC4)c3)nc2c1 [PCM-0213809] | > 9.99 µM | > 9.99 µM | 0.51 µM |  | 0.18 µM
30 | Cc1cc(-c2ccc(C)c(S(=O)(=O)NCc3cccnc3)c2)n[nH]1 [PCM-0213811] | > 9.99 µM | > 9.99 µM | 3.16 µM |  | 0.98 µM
31 | Cc1ccn2cc(-c3cccc(S(=O)(=O)NCc4cccnc4)c3)nc2c1 [PCM-0213812] | > 9.99 µM | 8.6 µM | 9.62 µM |  | 0.75 µM
32 | Cc1ccc(-c2nnc(-c3ccccc3)o2)cc1S(=O)(=O)NCc1cccnc1 [PCM-0213813] | > 9.99 µM | > 9.99 µM | 6.49 µM |  | 1.17 µM
33 | Cc1cc(-c2ccc(C)c(S(=O)(=O)NCCCN3CCCC3=O)c2)n[nH]1 [PCM-0213815] | > 9.99 µM | > 9.99 µM | 0.93 µM |  | 0.28 µM
34 | Cc1ccn2cc(-c3cccc(S(=O)(=O)NCCCN4CCCC4=O)c3)nc2c1 [PCM-0213817] | 5.28 µM | 3.44 µM | 0.7 µM |  | 0.32 µM
35 | Cc1ccn2cc(-c3ccc(C)c(S(=O)(=O)N4CCC(C)CC4)c3)nc2c1 [PCM-0214339] |  |  | 3.96 µM | 59.4 µM | 4.49 µM
